Laboratory results reported in the supplement of paper PMC4862054.
Where “and” joins values, the source holds several entries; their conditions need not be identical. Identical values can stand only once.

Key:
Conditions in all cases: incubation time: 72 h
CAL-148 [1] = test: normalised viability (% of control), CellTiter-Blue; higher = more viable cells (about 100 = DMSO control)
Procedure: (§1)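 DSRT, CellTiter-Blue viability, 72 h incubation. Signal is normalised to DMSO and benzethonium chloride controls. Value is the normalised response at dose 6.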

CAL-51 [2] = test: as above
Procedure: as §1

CAL-85-1 [3] = test: as above
Procedure: as §1

DU-4475 [4] = test: as above
Procedure: as §1

HDQ-P1 [5] = test: as above
Procedure: as §1

MDA-MB-453 [6] = test: as above
Procedure: as §1

CAL-148 [7] = test: as above; remark: listed apart in the source
Procedure: (§2)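 DSRT, CellTiter-Blue viability, 72 h incubation. Signal is normalised to DMSO and benzethonium chloride controls. Value is the normalised response at dose 8.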

CAL-51 [8] = test: as above; remark: listed apart in the source
Procedure: as §2

CAL-85-1 [9] = test: as above; remark: listed apart in the source
Procedure: as §2

HDQ-P1 [10] = test: as above; remark: listed apart in the source
Procedure: as §2

MDA-MB-453 [11] = test: as above; remark: listed apart in the source
Procedure: as §2

BT-474 [12] = test: normalised response (% of control), CellTox Green; higher = less cell death (100 = DMSO, 0 = benzethonium chloride kill control)
How it was run: (§3)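 Plates were normalised with 0.1 % DMSO as 100 and a positive kill control as 0. Breast cancer cell lines in 20 µl suspension had been seeded into 384-well plates with compound at 5 concentrations in 10-fold steps over a compound-specific 10,000-fold range, incubated 72 h, and read for CellTox Green fluorescence (485/520 nm) followed by CellTiter-Glo luminescence. Each value is the normalised signal at a single concentration.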

BT-549 [13] = test: as above
How it was run: as §3

CAL-120 [14] = test: as above
How it was run: as §3

CAL-148 [15] = test: as above
How it was run: as §3

CAL-51 [16] = test: as above
How it was run: as §3

CAL-85-1 [17] = test: as above
How it was run: as §3

DU-4475 [18] = test: as above
How it was run: as §3

HCC1143 [19] = test: as above
How it was run: as §3

HCC1599 [20] = test: as above
How it was run: as §3

HCC1937 [21] = test: as above
How it was run: as §3

HDQ-P1 [22] = test: as above
How it was run: as §3

Hs578T [23] = test: as above
How it was run: as §3

MCF-10A [24] = test: as above
How it was run: as §3

MDA-MB-231 [25] = test: as above
How it was run: as §3

MDA-MB-436 [26] = test: as above
How it was run: as §3

MDA-MB-453 [27] = test: as above
How it was run: as §3

MDA-MB-468 [28] = test: as above
How it was run: as §3

MFM-223 [29] = test: as above
How it was run: as §3

BT-474 [30] = test: normalised response (% of control), CellTiter-Glo; higher = more viable cells (100 = DMSO, 0 = benzethonium chloride kill control)
Procedure: (§4)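 DSRT, 72 h incubation, CellTox Green / CellTiter-Glo readout. Signal is normalised to DMSO and benzethonium chloride controls. Value is the normalised response at the highest dose.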

BT-549 [31] = test: as above
Procedure: as §4

CAL-120 [32] = test: as above
Procedure: as §4

CAL-148 [33] = test: as above
Procedure: as §4

CAL-51 [34] = test: as above
Procedure: as §4

CAL-85-1 [35] = test: as above
Procedure: as §4

DU-4475 [36] = test: as above
Procedure: as §4

HCC1143 [37] = test: as above
Procedure: as §4

HCC1599 [38] = test: as above
Procedure: as §4

HCC1937 [39] = test: as above
Procedure: as §4

HDQ-P1 [40] = test: as above
Procedure: as §4

Hs578T [41] = test: as above
Procedure: as §4

MCF-10A [42] = test: as above
Procedure: as §4

MDA-MB-231 [43] = test: as above
Procedure: as §4

MDA-MB-436 [44] = test: as above
Procedure: as §4

MDA-MB-453 [45] = test: as above
Procedure: as §4

MDA-MB-468 [46] = test: as above
Procedure: as §4

MFM-223 [47] = test: as above
Procedure: as §4

SK-BR-3 = test: as above
Procedure: as §4

In the case of C[C@]12C=CC(=O)C=C1CC[C@@H]1[C@@H]2C(=O)C[C@@]2(C)[C@H]1CC[C@]2(O)C(=O)CO [Prednisone] (300 nM), the normalised viability (CAL-148 [1]) is reported as 102%, the normalised viability (CAL-51 [2]) is reported as 104% and the normalised viability (CAL-85-1 [3]) is reported as 102%. The normalised viability (DU-4475 [4]) was 108%, the normalised viability (HDQ-P1 [5]) was 50.2% and the normalised viability (MDA-MB-453 [6]) was 91.8%.
Cn1nnc2c(C(N)=O)ncn2c1=O [Temozolomide] (300 nM) was tested, and the normalised viability (CAL-148 [1]) was 89.2%, the normalised viability (CAL-51 [2]) was 88.4% and the normalised viability (CAL-85-1 [3]) was 104%. It also gave a normalised viability (DU-4475 [4]) of 116%, a normalised viability (HDQ-P1 [5]) of 72.5% and a normalised viability (MDA-MB-453 [6]) of 93.8%.
Compound CC/C(=C(\c1ccccc1)c1ccc(OCCN(C)C)cc1)c1ccccc1 [Tamoxifen] (300 nM) has a normalised viability (CAL-148 [1]) of 112%, a normalised viability (CAL-51 [2]) of 89.5% and a normalised viability (CAL-85-1 [3]) of 106%. For the same compound, the normalised viability (DU-4475 [4]) was 113%, the normalised viability (HDQ-P1 [5]) was 93.8% and the normalised viability (MDA-MB-453 [6]) was 97.8%.
For Nc1nc(Cl)nc2c1ncn2[C@@H]1O[C@H](CO)[C@@H](O)[C@@H]1F [Clofarabine] (300 nM), the normalised viability (CAL-148 [1]) was 68.7%, the normalised viability (CAL-51 [2]) was 81.9% and the normalised viability (CAL-85-1 [3]) was 65.1%. The normalised viability (DU-4475 [4]) was 77%, the normalised viability (HDQ-P1 [5]) was 70.1% and the normalised viability (MDA-MB-453 [6]) was 82.9%.
For CCCCCOC(=O)Nc1nc(=O)n([C@@H]2O[C@H](C)[C@@H](O)[C@H]2O)cc1F [Capecitabine] (300 nM), the normalised viability (CAL-148 [1]) was 98% and 94.3%, the normalised viability (CAL-51 [2]) was 103% and 96.5% and the normalised viability (CAL-85-1 [3]) was 92.1% and 98.6%. The normalised viability (HDQ-P1 [5]) was 62.7% and 83.6% and the normalised viability (MDA-MB-453 [6]) was 108% and 94.3%.
CCCCCOC(=O)Nc1nc(=O)n([C@@H]2O[C@H](C)[C@@H](O)[C@H]2O)cc1F [Capecitabine] (3000 nM) was tested, and the normalised viability (CAL-148 [7]) was 98.8% and 92.8%, the normalised viability (CAL-51 [8]) was 109% and 96% and the normalised viability (CAL-85-1 [9]) was 82.3% and 95.4%. For the same compound, the normalised viability (HDQ-P1 [10]) was 89.4% and 86.4% and the normalised viability (MDA-MB-453 [11]) was 95.7% and 93.7%.
CCc1cnn2c(NCc3ccc[n+]([O-])c3)cc(N3CCCC[C@H]3CCO)nc12 [Dinaciclib] (1000 nM) showed a normalised response (BT-474 [12]) of 88.3%, a normalised response (BT-549 [13]) of 81.4% and a normalised response (CAL-120 [14]) of 80.6%. For the same compound, the normalised response (CAL-148 [15]) was 46.3%, the normalised response (CAL-51 [16]) was 71.8% and the normalised response (CAL-85-1 [17]) was 4.91%. For the same compound, the normalised response (DU-4475 [18]) was 90.4%, the normalised response (HCC1143 [19]) was 88.2% and the normalised response (HCC1599 [20]) was 74.5%. It also gave a normalised response (HCC1937 [21]) of 83.6%, a normalised response (HDQ-P1 [22]) of 48.4% and a normalised response (Hs578T [23]) of 36.3%. It also gave a normalised response (MCF-10A [24]) of 47.1%, a normalised response (MDA-MB-231 [25]) of -18.6% and a normalised response (MDA-MB-436 [26]) of 86.5%. The normalised response (MDA-MB-453 [27]) was 88.2%, the normalised response (MDA-MB-468 [28]) was 31.8% and the normalised response (MFM-223 [29]) was 42.2%. For the same compound, the normalised response (BT-474 [30]) was 20.2%, the normalised response (BT-549 [31]) was 14% and the normalised response (CAL-120 [32]) was 38.1%. The normalised response (CAL-148 [33]) was 67.5%, the normalised response (CAL-51 [34]) was 14.3% and the normalised response (CAL-85-1 [35]) was 8.86%. The normalised response (DU-4475 [36]) was 21.8%, the normalised response (HCC1143 [37]) was 19.3% and the normalised response (HCC1599 [38]) was 12.3%. For the same compound, the normalised response (HCC1937 [39]) was 27.8%, the normalised response (HDQ-P1 [40]) was 23% and the normalised response (Hs578T [41]) was 17.1%. For the same compound, the normalised response (MCF-10A [42]) was 21.3%, the normalised response (MDA-MB-231 [43]) was 6.98% and the normalised response (MDA-MB-436 [44]) was 19.3%. The normalised response (MDA-MB-453 [45]) was 20.6%, the normalised response (MDA-MB-468 [46]) was 6.62% and the normalised response (MFM-223 [47]) was 11.5%. The normalised response (SK-BR-3) was 2.06%.
Cn1cc(C[C@@H](N)C(=O)O)c2ccccc21 [1-methyl-D-tryptophan] (5000 nM) gave a normalised response (BT-474 [12]) of 99.7%, a normalised response (BT-549 [13]) of 90% and a normalised response (CAL-120 [14]) of 99.4%. For the same compound, the normalised response (CAL-148 [15]) was 105%, the normalised response (CAL-51 [16]) was 102% and the normalised response (CAL-85-1 [17]) was 106%. The normalised response (DU-4475 [18]) was 96.5%, the normalised response (HCC1143 [19]) was 124% and the normalised response (HCC1599 [20]) was 98%. For the same compound, the normalised response (HCC1937 [21]) was 106%, the normalised response (HDQ-P1 [22]) was 60.4% and the normalised response (Hs578T [23]) was 101%. It also gave a normalised response (MCF-10A [24]) of 90.3%, a normalised response (MDA-MB-231 [25]) of 99.5% and a normalised response (MDA-MB-436 [26]) of 93.1%. For the same compound, the normalised response (MDA-MB-453 [27]) was 99.9%, the normalised response (MDA-MB-468 [28]) was 53% and the normalised response (MFM-223 [29]) was 103%. The normalised response (BT-474 [30]) was 96.4%, the normalised response (BT-549 [31]) was 97.8% and the normalised response (CAL-120 [32]) was 101%. For the same compound, the normalised response (CAL-148 [33]) was 85.7%, the normalised response (CAL-51 [34]) was 107% and the normalised response (CAL-85-1 [35]) was 98.3%. The normalised response (DU-4475 [36]) was 92.9%, the normalised response (HCC1143 [37]) was 102% and the normalised response (HCC1599 [38]) was 87.9%. It also gave a normalised response (HCC1937 [39]) of 99.5%, a normalised response (HDQ-P1 [40]) of 111% and a normalised response (Hs578T [41]) of 97%. The normalised response (MCF-10A [42]) was 97.4%, the normalised response (MDA-MB-231 [43]) was 95.7% and the normalised response (MDA-MB-436 [44]) was 95.1%. It also gave a normalised response (MDA-MB-453 [45]) of 91.4%, a normalised response (MDA-MB-468 [46]) of 96.7% and a normalised response (MFM-223 [47]) of 92.5%. The normalised response (SK-BR-3) was 93.2%.
